Experimental data published in patent US20160368879A1, “PHOTOACID GENERATOR, AND RESIN COMPOSITION FOR PHOTOLITHOGRAPHY” (SAN-APRO LTD., priority 2013, published 2016).

Columns and labels:
Format in all cases: physicochemical
[1] = Molar extinction coefficient of i-line (365 nm), UV-visible absorbance in acetonitrile; details: 0.25 mmol/L in acetonitrile, cell length 1 cm
Description: The synthesized photoacid generator was diluted to 0.25 mmol/L with acetonitrile, and using an ultraviolet-visible spectrophotometer (UV-2550 available from SHIMADZU CORPORATION), the absorbance in a range of 200 nm to 500 nm was measured with a cell having an optical path length (a cell length) of 1 cm. The molar extinction coefficient of i-line (365 nm) (ε365) was calculated from the following equation.
[In the equation, […] represents the absorbance at 365 nm.]

[2] = Thermal decomposition temperature (TG/DTA, 2% weight reduction); details: point of 2% weight reduction; 10° C./minute from 30° C. to 500° C.; nitrogen atmosphere
Description: The synthesized photoacid generator was measured for the change in weight under a temperature increasing condition of 10° C./minute from 30° C. to 500° C. under a nitrogen atmosphere using a thermal gravimetric/differential thermal analyzer (TG/DTA 6200, available from Seiko Instruments Inc.), and a point where the weight was reduced by 2% was defined as the thermal decomposition temperature.

[3] = Solvent solubility (butyl acetate, toluene or PGMEA); details: for Solvent solubility PGMEA / Solvent solubility Butyl acetate / Solvent solubility Toluene: 25° C.; for solubility to a solvent (in words): summary of Tables 4 to 6
Description: In a test tube, 0.1 g of the synthesized photoacid generator was placed, and an organic solvent (butyl acetate, toluene or PGMEA) was added thereto in 0.2 g portions under a condition where the temperature was adjusted to 25° C. until the photoacid generator was completely dissolved. In this connection, in the case where the photoacid generator was not completely dissolved even when 20 g of the solvent was added, the photoacid generator was evaluated as one that was not dissolved.

Structure (SMILES)	Molar extinction coefficient [1] [L/mol/cm]	Thermal decomposition temperature [2] [°C]	Solvent solubility PGMEA [3] [wt %]	Solvent solubility Butyl acetate [3] [wt %]	Solvent solubility Toluene [3] [wt %]	solubility to a solvent (in words) [3]
CC1(C)[C@@H]2CC[C@@]1(CS(=O)(=O)ON1C(=O)c3cccc4c([Si](C)(C)C)ccc(c34)C1=O)C(=O)C2 [Example A-58, 4-trimethylsilyl-1,8-naphthalimide-(+)-10-camphorsulfonate]	5500	243	2.5	2.5	3	
CCCOc1ccc2c3c(cccc13)C(=O)N(OS(=O)(=O)c1c(F)c(F)c(F)c(F)c1F)C2=O [Example A-22, 4-n-propoxy-1,8-naphthalimide pentafluorobenzenesulfonate]	14000	240	3	3.5	6	
O=C1c2cccc3cccc(c23)C(=O)N1OS(=O)(=O)C(F)(F)F [A′-1, 1,8-naphthalimide trifluoromethanesulfonate, reference compound]	330	225	2.4	2	4	insufficient
O=C1c2cccc3c(Oc4c(F)c(F)c(F)c(F)c4F)ccc(c23)C(=O)N1OS(=O)(=O)C(F)(F)F [Example A-5, 4-pentafluorophenoxy-1,8-naphthalimide trifluoromethanesulfonate]	12000	245	14	17	16	
CC(C)(C)Cc1cc2c3c(cc(CC(C)(C)C)cc3c1)C(=O)N(OS(=O)(=O)C(F)(F)F)C2=O [Example A-14, 3,6-dineopentyl-1,8-naphthalimide trifluoromethanesulfonate]	6200	248	14	18	10	
CC(C)Oc1ccc2c3c(cccc13)C(=O)N(OS(=O)(=O)CC13CCC(CC1=O)C3(C)C)C2=O (stereo not drawn) [Example A-41, 4-isopropoxy-1,8-naphthalimide-(+)-10-camphorsulfonate]	16300	239	1.8	1.7	2	
O=C1c2cccc3c(Oc4cccc(C(F)(F)F)c4)ccc(c23)C(=O)N1OS(=O)(=O)c1c(F)c(F)c(F)c(F)c1F [Example A-26, 4-(3-trifluoromethylphenoxy)-1,8-naphthalimide pentafluorobenzenesulfonate]	16000	241	9	11	10	
CC1(C)C2CC[C@@]1(CS(=O)(=O)ON1C(=O)c3cccc4cc(OC(=O)c5c(F)c(F)c(F)c(F)c5F)cc(c34)C1=O)C(=O)C2 [Example A-52, 3-pentafluorobenzoyloxy-1,8-naphthalimide-(+)-10-camphorsulfonate]	1300	245	7.5	12	10	
O=C(Oc1cc2c3c(cccc3c1)C(=O)N(OS(=O)(=O)C(F)(F)F)C2=O)c1c(F)c(F)c(F)c(F)c1F [Example A-12, 3-pentafluorobenzoyloxy-1,8-naphthalimide trifluoromethanesulfonate]	1300	242	>30	>30	>30	
CC1(C)C2CC[C@@]1(CS(=O)(=O)ON1C(=O)c3cccc4c(Sc5ccccc5)ccc(c34)C1=O)C(=O)C2 [Example A-47, 4-phenylthio-1,8-naphthalimide-(+)-10-camphorsulfonate]	20000	244	1.3	1.8	1.7	
O=C1c2cccc3c(Cl)ccc(c23)C(=O)N1OS(=O)(=O)c1c(F)c(F)c(F)c(F)c1F [Example A-39, 4-chloro-1,8-naphthalimide pentafluorobenzenesulfonate]	6000	225	3.5	3	5	
CC(C)(C)c1cc2c3c(cc(C(C)(C)C)cc3c1)C(=O)N(OS(=O)(=O)CC13CCC(CC1=O)C3(C)C)C2=O (stereo not drawn) [Example A-53, 3,6-di-tert-butyl-1,8-naphthalimide-(+)-10-camphorsulfonate]	6500	247	1.7	2	1.9	
CC1(C)C2CCC1(CS(=O)(=O)ON1C(=O)c3cccc4c(C(F)(F)C(F)(F)C(F)(F)C(F)(F)F)ccc(c34)C1=O)C(=O)C2 (stereo not drawn) [Example A-56, 4-(nonafluorobutyl)-1,8-naphthalimide-(+)-10-camphorsulfonate]	40	241	5	5	5.5	
O=C1c2cccc3c(Br)ccc(c23)C(=O)N1OS(=O)(=O)c1c(F)c(F)c(F)c(F)c1F [Example A-40, 4-bromo-1,8-naphthalimide pentafluorobenzenesulfonate]	8500	243	3.2	3	4.5	
O=C1c2cccc3c(Br)ccc(c23)C(=O)N1OS(=O)(=O)C(F)(F)F [Example A-20, 4-bromo-1,8-naphthalimide trifluoromethanesulfonate]	8500	230	4	4.5	8	
COc1cc2c3c(cccc3c1)C(=O)N(OS(=O)(=O)C[C@]13CCC(CC1=O)C3(C)C)C2=O [Example A-48, 3-methoxy-1,8-naphthalimide-(+)-10-camphorsulfonate]	7500	242	1.5	2	1.9	
CCCCC(CC)C(=O)Oc1cc2c3c(cccc3c1)C(=O)N(OS(=O)(=O)CC13CCC(CC1=O)C3(C)C)C2=O (stereo not drawn) [Example A-49, 3-(2-ethylhexanoyloxy)-1,8-naphthalimide-(+)-10-camphorsulfonate]	1500	232	8	11	9	
CCCC(=O)Oc1cc2c3c(cccc3c1)C(=O)N(OS(=O)(=O)C(F)(F)F)C2=O [Example A-10, 3-butyroyloxy-1,8-naphthalimide trifluoromethanesulfonate]	1600	234	>30	>30	>30	
O=C1c2cccc3cccc(c23)C(=O)N1OS(=O)(=O)c1c(F)c(F)c(F)c(F)c1F [A′-3, 1,8-naphthalimide pentafluorobenzenesulfonate, reference compound]	330	228	1.9	1.6	3.2	insufficient
CC1(C)C2CCC1(CS(=O)(=O)ON1C(=O)c3cccc4c(Br)ccc(c34)C1=O)C(=O)C2 (stereo not drawn) [Example A-60, 4-bromo-1,8-naphthalimide-(+)-10-camphorsulfonate]	8500	240	1.5	1.1	2	
CCCCC(CC)C(=O)Oc1cc2c3c(cccc3c1)C(=O)N(OS(=O)(=O)C(F)(F)F)C2=O (centres unmarked) [Example A-9, 3-(2-ethylhexanoyloxy)-1,8-naphthalimide trifluoromethanesulfonate]	1500	231	>30	>30	>30	
